Holding throughout (assay): DTP human tumour cell line panel, 48 h
Test [1] relates to LOX IMVI melanoma.
In test [2] the test system is T-47D breast.
For test [3], the system named is OVCAR-3 ovarian.
Test [4] relates to NCI-H522 lung.
The test system of test [5] is KM12 colon.
The subject of test [6] is UACC-257 melanoma.
In test [7] the test system is SNB-75 CNS.
The test system of test [8] is UACC-62 melanoma.
In test [9] the test system is UO-31 renal.
Test [10] deals with MALME-3M melanoma.

The structures appear in SMILES notation.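 Each compound was tested at five concentrations against cells in 96-well plates for 48 hours. The concentration for 50% growth inhibition is given as GI50. TGI denotes the concentration required for complete inhibition of growth.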

As usually defined, the GI50 is the concentration that inhibits growth by half. Usually TGI stands for the concentration giving total growth inhibition. The low end stands for more potent growth arrest, the high end for less potent growth arrest. As for `O=C1/C(=C/c2ccc(F)cc2)CN(C(=O)C(Cl)Cl)C/C1=C\c1ccc(F)cc1`, the GI50 in test [1] was 0.0346 µM; in test [2], 0.702 µM; in [3], 0.262 µM; in [4] it was 1.5 µM; in test [5] it was 0.107 µM; in test [6], 0.45 µM. In addition, the GI50 in test [7] was 1.45 µM; in test [8], 0.237 µM; in [9], 0.163 µM; in [10], 0.212 µM. In addition, the TGI in [1] was determined as 0.0974 µM; in test [2], 3.6 µM; in [3] it was 0.778 µM; in [4], 3.27 µM; in test [5] it was 0.336 µM; in [6], 1.62 µM. The TGI in test [7] stood at 2.93 µM; in [8], 0.641 µM; in test [9], 0.327 µM; in test [10] it was 0.528 µM.
For the molecule `CCOC(=O)c1c2c(n3ccc(NC(=O)CCN4CCCCC4)cc13)C(=O)c1ncccc1C2=O`, the GI50 in [1] was 0.301 µM; in test [2], 8 µM; in test [3] it was 1.14 µM; in [4], 0.0158 µM; in [5], 1.22 µM; in test [6], 2.45 µM. Besides, the GI50 in test [7] is 0.506 µM; in test [8], 0.281 µM; in [9], 0.0315 µM; in test [10], 1.16 µM. The TGI stood at 0.777 µM in test [1]; 30.2 µM in test [2]; 2.64 µM in test [3]; 1.72 µM in test [4]; 2.76 µM in [5]; 7.99 µM in test [6]. Moreover, the TGI turned out to be 5.98 µM in test [7], 2.65 µM in test [8], 1.46 µM in [9] and 2.73 µM in test [10].
On to `O=C(c1ccc2ccccc2c1)c1c(C(F)(F)F)n([O-])c2cc(C(F)(F)F)ccc2[n+]1=O`, for which the GI50 was 1.63 µM in test [1]; 1.31 µM in test [2]; 1.48 µM in test [3]; 1.55 µM in test [4]; 1.69 µM in [5]; 1.22 µM in test [6]. For the same molecule, the GI50 in test [7] was 1.73 µM; in test [8], 1.55 µM; in [9], 1.36 µM; in test [10], 1.67 µM. The TGI in test [1] turned out to be 3.22 µM; in test [2], 3.38 µM; in test [3], 2.97 µM; in [4], 3.09 µM; in [5], 3.22 µM; in test [6] it was 2.69 µM. In addition, the concentration for total growth inhibition (TGI) in test [7] was 3.13 µM; in test [8] it was 3.06 µM; in test [9], 2.7 µM; in test [10], 3.36 µM.

The record behind these values is PubChem BioAssay (NCI).
